Results reported in patent publication US20240360157A1, “TYK2 INHIBITORS” (BIOGEN MA INC., priority 2021, published 2024).
Structures can show the parent of a compound that is named as a salt.

Columns and labels:
Type in all cases: biochemical
[1] = molecular target: human TYK2 catalytic kinase (JH1) domain (Homo sapiens (Human), UniProt P29597); test: ADP-Glo Kinase Assay, recombinant TYK2 catalytic kinase (JH1) domain; details: recombinant JH1 domain 2 nM, 10 μM ATP, JAK3-974 peptide, mean, read-out: TYK2 biochem IC50 (nM) Mean
Sequence of human TYK2 catalytic kinase (JH1) domain (P29597 897-1176): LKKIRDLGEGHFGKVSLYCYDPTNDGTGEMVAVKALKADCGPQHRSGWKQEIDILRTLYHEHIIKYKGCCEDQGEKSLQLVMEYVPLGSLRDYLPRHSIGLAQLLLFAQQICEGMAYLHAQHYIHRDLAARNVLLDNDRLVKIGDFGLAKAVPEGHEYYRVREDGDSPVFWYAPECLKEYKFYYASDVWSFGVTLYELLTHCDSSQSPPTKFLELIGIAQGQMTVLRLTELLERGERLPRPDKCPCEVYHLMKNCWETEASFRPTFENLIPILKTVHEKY
Outline: (§1)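 Reactions ran 100 min with 50 μM substrate peptide (JAK3-342 for JAK1 at 4 nM enzyme; JAK3-974 for JAK2 0.2 nM, JAK3 0.3 nM, TYK2 2 nM), and ADP formed was read by ADP-Glo luminescence. Eleven-point 3-fold series from 10 or 1 μM; IC50 fitted by 4-parameter logistic model.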

[2] = molecular target: human JAK1 catalytic kinase (JH1) domain (Homo sapiens (Human), UniProt P23458); test: ADP-Glo Kinase Assay, recombinant JAK1 catalytic kinase (JH1) domain; details: recombinant JH1 domain 4 nM, 35 μM ATP, JAK3-342 peptide, mean, read-out: JAK1 biochem IC50 (nM) Mean
Sequence of human JAK1 catalytic kinase (JH1) domain (P23458 875-1153): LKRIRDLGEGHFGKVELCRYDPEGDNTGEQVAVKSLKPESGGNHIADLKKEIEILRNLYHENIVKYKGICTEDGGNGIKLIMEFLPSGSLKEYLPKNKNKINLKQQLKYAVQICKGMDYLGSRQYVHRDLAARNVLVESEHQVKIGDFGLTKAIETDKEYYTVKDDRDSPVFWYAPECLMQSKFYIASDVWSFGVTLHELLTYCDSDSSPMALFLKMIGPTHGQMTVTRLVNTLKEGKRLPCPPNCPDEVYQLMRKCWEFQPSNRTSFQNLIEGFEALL
Outline: as §1

[3] = molecular target: human JAK2 catalytic kinase (JH1) domain (Homo sapiens (Human), UniProt O60674); test: ADP-Glo Kinase Assay, recombinant JAK2 catalytic kinase (JH1) domain; details: recombinant JH1 domain 0.2 nM, 15 μM ATP, JAK3-974 peptide, mean, read-out: JAK2 biochem IC50 (nM) Mean
Sequence of human JAK2 catalytic kinase (JH1) domain (O60674 849-1124): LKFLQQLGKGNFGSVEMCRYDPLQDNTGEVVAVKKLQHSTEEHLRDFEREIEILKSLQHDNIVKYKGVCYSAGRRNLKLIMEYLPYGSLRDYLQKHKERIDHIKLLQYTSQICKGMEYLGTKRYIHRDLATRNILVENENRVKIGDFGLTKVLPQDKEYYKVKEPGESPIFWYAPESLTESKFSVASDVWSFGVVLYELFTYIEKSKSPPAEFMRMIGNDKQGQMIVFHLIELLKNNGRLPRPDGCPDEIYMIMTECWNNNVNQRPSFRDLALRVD
Outline: as §1

[4] = molecular target: human JAK3 catalytic kinase (JH1) domain (Homo sapiens (Human), UniProt P52333); test: ADP-Glo Kinase Assay, recombinant JAK3 catalytic kinase (JH1) domain; details: recombinant JH1 domain 0.3 nM, 4 μM ATP, JAK3-974 peptide, mean, read-out: JAK3 biochem IC50 (nM) Mean
Sequence of human JAK3 catalytic kinase (JH1) domain (P52333 822-1111): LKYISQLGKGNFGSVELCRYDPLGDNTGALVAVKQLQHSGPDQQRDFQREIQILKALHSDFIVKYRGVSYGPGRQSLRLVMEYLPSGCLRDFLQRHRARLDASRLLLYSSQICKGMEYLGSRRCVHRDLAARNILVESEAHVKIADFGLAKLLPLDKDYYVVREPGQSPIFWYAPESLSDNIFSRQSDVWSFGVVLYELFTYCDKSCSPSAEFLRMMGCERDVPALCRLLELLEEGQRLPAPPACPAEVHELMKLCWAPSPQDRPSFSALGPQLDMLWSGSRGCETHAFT
Outline: as §1

| SMILES | IC50 [1] [nM] | IC50 [2] [nM] | IC50 [3] [nM] | IC50 [4] [nM] |
| --- | --- | --- | --- | --- |
| Cn1cc(-c2cc3c(N4CC5CCC(C4)N5C(=O)[C@@H]4CC4(F)F)ccnn3c2)cn1 [Example 22, ((S)-2,2-difluorocyclopropyl)(3-(6-(1-methyl-1H-pyrazol-4-yl)pyrrolo[1,2-b]pyridazin-4-yl)-3,8-diazabicyclo[3.2.1]octan-8-yl)methanone] | 1.8 | 55 | 32 | 445 |
| CNc1cncc(-c2cc3c(N4CC5CCC(C4)N5C(=O)[C@@H]4C[C@H]4F)ccnn3c2)n1 [Example 127, ((1S,2R)-2-fluorocyclopropyl)(3-(6-(6-(methylamino)pyrazin-2-yl)pyrrolo[1,2-b]pyridazin-4-yl)-3,8-diazabicyclo[3.2.1]octan-8-yl)methanone] | 18 | 211 | 300 | 3140 |
| Cn1cc(-c2nc3c(N4CC5CCC(C4)N5C(=O)[C@@H]4C[C@H]4F)ccnc3[nH]2)c(F)n1 [Example 216, (3-(2-(3-fluoro-1-methyl-1H-pyrazol-4-yl)-3H-imidazo[4,5-b]pyridin-7-yl)-3,8-diazabicyclo[3.2.1]octan-8-yl)((1S,2R)-2-fluorocyclopropyl)methanone] | 1.9 | 41 | 14 | 235 |
| Cn1cc(-c2cc3c(N4CC5CCC(C4)N5C(=O)C4CC(F)(F)C4)ncnn3c2)cn1 [Example 70, (3,3-difluorocyclobutyl)(3-(6-(1-methyl-1H-pyrazol-4-yl)pyrrolo[2,1-f][1,2,4]triazin-4-yl)-3,8-diazabicyclo[3.2.1]octan-8-yl)methanone] | 382 | 2430 | 6360 | 5090 |
| Cn1cc(-c2cc3c(N4CC5CCC(C4)N5C(=O)[C@@H]4C[C@H]4F)ncnc3[nH]2)cn1 [Example 235, ((1S,2R)-2-fluorocyclopropyl)(3-(6-(1-methyl-1H-pyrazol-4-yl)-7H-pyrrolo[2,3-d]pyrimidin-4-yl)-3,8-diazabicyclo[3.2.1]octan-8-yl)methanone] | 5.3 | 117 | 106 | 338 |
| O=C([C@@H]1C[C@H]1F)N1C2CCC1CN(c1ncnc3[nH]c(-c4ccnnc4)cc13)C2 [Example 234, ((1S,2R)-2-fluorocyclopropyl)(3-(6-(pyridazin-4-yl)-7H-pyrrolo[2,3-d]pyrimidin-4-yl)-3,8-diazabicyclo[3.2.1]octan-8-yl)methanone] | 28.6 | 388 | 598 | 3200 |
| Cn1cc(-c2cc3c(N4CC5CCC(C4)N5C(=O)[C@H]4C[C@H]4C#N)ncnn3c2)cn1 (single isomer, unassigned) [Example 85] | 751 | 3310 | 10000 | 4450 |
| O=C([C@@H]1C[C@H]1F)N1C2CCC1CN(c1ncnn3cc(-c4ccnnc4)cc13)C2 [Example 90, ((1S,2R)-2-fluorocyclopropyl)(3-(6-(pyridazin-4-yl)pyrrolo[2,1-f][1,2,4]triazin-4-yl)-3,8-diazabicyclo[3.2.1]octan-8-yl)methanone] | 124 | 1120 | 3060 | 10000 |
| O=C([C@H]1C[C@H]1F)N1C2CCC1CN(c1ncnn3cc(-c4cnn(C(F)F)c4)cc13)C2 (racemic) [Example 46, Rac-(3-(6-(1-(difluoromethyl)-1H-pyrazol-4-yl)pyrrolo[2,1-f][1,2,4]triazin-4-yl)-3,8-diazabicyclo[3.2.1]octan-8-yl)((1R,2R)-2-fluorocyclopropyl)methanone] | 668 | 1230 | 9740 | 6110 |
| C[C@]1(F)C[C@H](C(=O)N2C3CCC2CN(c2ncnn4cc(-c5cnn(C(F)F)c5)cc24)C3)C1 [Example 34, (3-(6-(1-(difluoromethyl)-1H-pyrazol-4-yl)pyrrolo[2,1-f][1,2,4]triazin-4-yl)-3,8-diazabicyclo[3.2.1]octan-8-yl)((1r,3r)-3-fluoro-3-methylcyclobutyl)methanone trifluoroacetate] | 510 | 3190 | 7520 | 9510 |
| C[C@]1(F)C[C@@H](C(=O)N2C3CCC2CN(c2ncnn4cc(-c5cnn(C(F)F)c5)cc24)C3)C1 [Example 33, (3-(6-(1-(difluoromethyl)-1H-pyrazol-4-yl)pyrrolo[2,1-f][1,2,4]triazin-4-yl)-3,8-diazabicyclo[3.2.1]octan-8-yl)((1s,3s)-3-fluoro-3-methylcyclobutyl)methanone trifluoroacetate] | 476 | 854 | 6140 | 4430 |
| O=C([C@@H]1C[C@H]1F)N1C2CCC1CN(c1ccnc3[nH]c(N4CCOCC4)nc13)C2 [Example 212, ((1S,2R)-2-fluorocyclopropyl)(3-(2-morpholino-3H-imidazo[4,5-b]pyridin-7-yl)-3,8-diazabicyclo[3.2.1]octan-8-yl)methanone] | 30.5 | 322 | 650 | 4220 |
| Cc1cc(-c2cc3c(N4CC5CCC(C4)N5C(=O)[C@@H]4C[C@H]4F)ccnn3c2)ncn1 [Example 106, ((1S,2R)-2-fluorocyclopropyl)(3-(6-(6-methylpyrimidin-4-yl)pyrrolo[1,2-b]pyridazin-4-yl)-3,8-diazabicyclo[3.2.1]octan-8-yl)methanone] | 13.7 | 448 | 178 | 3200 |
| COc1cc(-c2cc3c(N4CC5CCC(C4)N5C(=O)[C@@H]4C[C@H]4F)ccnn3c2)ncn1 [Example 105, ((1S,2R)-2-fluorocyclopropyl)(3-(6-(6-methoxypyrimidin-4-yl)pyrrolo[1,2-b]pyridazin-4-yl)-3,8-diazabicyclo[3.2.1]octan-8-yl)methanone] | 28.6 | 356 | 190 | 6900 |
| COc1cc(-c2cn3nccc(N4CC5CCC(C4)N5C(=O)[C@@H]4C[C@H]4F)c3n2)ccn1 [Example 248, ((1S,2R)-2-fluorocyclopropyl)(3-(2-(2-methoxypyridin-4-yl)imidazo[1,2-b]pyridazin-8-yl)-3,8-diazabicyclo[3.2.1]octan-8-yl)methanone] | 9.5 | 23 | 48 | 515 |
| Cn1cc(-c2cc3c(N4CC5CCC(C4)N5C(=O)[C@@H]4C[C@H]4F)ncnn3c2)cn1 [Example 2, ((1S,2R)-2-fluorocyclopropyl)(3-(6-(1-methyl-1H-pyrazol-4-yl)pyrrolo[2,1-f][1,2,4]triazin-4-yl)-3,8-diazabicyclo[3.2.1]octan-8-yl)methanone] | 4.7 | 324 | 292 | 820 |
| O=C(C1CC1)N1C2CCC1CN(c1ncnn3cc(-c4ccnc(Cl)c4)cc13)C2 [Example 180] | 547 | 4750 | 10000 | 10000 |
| O=C([C@@H]1C[C@H]1F)N1C2CCC1CN(c1ccnc3[nH]c(C4CC4)nc13)C2 [Example 208, (3-(2-cyclopropyl-3H-imidazo[4,5-b]pyridin-7-yl)-3,8-diazabicyclo[3.2.1]octan-8-yl)((1S,2R)-2-fluorocyclopropyl)methanone] | 85.4 | 716 | 772 | 6420 |
